Assay results published in article PMC7221733, “Synthetic Kavalactone Analogues with Increased Potency and Selective Anthelmintic Activity against Larvae of Haemonchus contortus In Vitro” (Molecules, 2020).
Read-outs that look alike come from different tables or passages of the source.

Tests used:
Haemonchus contortus [1] = assay: Larval development assay (xL3 to L4) of H. contortus in vitro; assay type: cell-based; conditions: for IC50: read-out: Inhibition of Larval Development in H. Contortus IC50 (µM) ± SEM; for Anthelmintic activity in the larval development assay (in words): dilution series commencing at 100 µM
Method: The Haecon-5 strain of H. contortus was produced in experimental sheep, according to animal ethics guidelines of the University of Melbourne, Australia (permit no.1413429). The feces were collected from the infected sheep and incubated at 27 °C for 1 week, allowing first-stage larvae to emerge and develop to third-stage larvae (L3s). L3s were collected and stored at 10 °C until used in experiments; xL3s were prepared by treating L3s with 0.15% v/v sodium hypochlorite (NaClO) and incubated for 20 min at 38 °C, and subsequently washed five times with sterile physiological saline (pH 7.0). These xL3s were immediately incubated at 38 °C in sterile Luria Bertani (LB) broth supplemented with 100 IU/ml of penicillin, 100 µg/ml of streptomycin, and […] of amphotericin B (fungizone, antibiotic—antimycotic; cat. no. 15240-062; Gibco, Thermo Fisher Scientific, Waltham, MA, USA); this supplemented medium was designated as LB*.
In our previous study, larval development-inhibition results guided the fractionation of the active extract from P. methysticum, and the findings were consistent with subsequent potency assessments of the purified kavalactones. Therefore, the developmental inhibition assay for H. contortus was used to determine the activity/potency of the kavalactone analogues synthesized in the present study. In brief, all synthesized compounds as well as monepantel (Zolvix, Elanco Animal Health, Australia) and moxidectin (Cydectin, Virbac, France) (two positive controls) were individually tested for inhibition of larval development in H. contortus using an 18-point, two-fold dilution series, commencing at 100 µM. Compound solutions (in dimethyl sulfoxide [DMSO] plus LB*) were prepared and added to 96-well flat bottom plates to achieve the desired final concentrations in a final volume of 100 µl, and xL3s (as described in Section 3.2) were dispensed into individual wells at a density of 300 worms per well (in 50 µl of LB*). Matched concentrations of DMSO (0.25% in LB*) were used as negative (untreated) controls. The plates were incubated (10% v/v CO2) at 38 °C for 7 days. Larvae in each well were fixed with 50 µl of 1% iodine at 7 days, and the number of xL3s that developed to L4s in each well was counted by light microscopic examination at 20× magnification. L4s were differentiated from xL3s by their well-developed mouth and pharynx characteristics. The assay was repeated three times on different days using three replicates in each assay. The half-maximum inhibitory concentration (IC50) of each compound was determined by fitting the log10-transformed concentration to a variable slope four-parameter model using the GraphPad Prism (v. 8.3.1) software (GraphPad Software Inc., San Diego, CA, USA).

[2] = system: HepG2 human hepatoma cells; assay: Cytotoxicity on HepG2 cells (CellTiter-Glo cell viability assay); assay type: cell-based; conditions: for EC50: Homo sapiens, read-out: HepG2 EC50
Method: Synthesized compounds were tested for their toxicity on HepG2 human hepatoma cells, as described previously. In brief, compounds were tested in a 10-point, two-fold dilution series, commencing at 40 µM. The cells were cultured in Dulbecco’s modified Eagle’s medium (DMEM) supplemented with 10% fetal bovine serum (FBS) and incubated at 37 °C with 5% v/v CO2. The cells were seeded into 384-well plates at a density of 1 × 10^3 per well and exposed to compounds for 48 h. The toxicity was determined by CellTiter-Glo® cell viability assay (Promega, USA), which assessed the number of viable cells based on the quantity of ATP present. Matched percentages of etoposide and DMSO were used as positive and negative (untreated) controls, respectively. The EC50 values were determined as described in Section 3.3, and the selectivity index was calculated by dividing the EC50 value for HepG2 cells by the IC50 value for H. contortus.

[3] = system: MCF10A, non-tumorigenic breast epithelial cells; set-up: method as in PMID 30739078; conditions: in vitro cell proliferation assay; cited from earlier work
Haemonchus contortus [4] = system: Haemonchus contortus; set-up: method as in PMID 30739078; conditions: cited from earlier work; for Phenotype induced in treated larvae / IC50: previous study; for IC50: purchased / isolated kavalactones, read-out: IC50 for inhibition of larval (L4) development of H. contortus
[5] = Haemonchus contortus, 168 h, xL3 to L4 development, 7 days, synthesized compounds, mean ± SEM
[6] = HepG2, 48 h exposure, CellTiter-Glo, highest concentration 40 µM
[7] = xL3 to L4 development, 7 days, synthesized compounds, mean ± SEM

Row | Compound | IC50 (Haemonchus contortus [1]; [5]) [µM] | EC50 [2, 6] [µM] | further results
1 | COc1cc(/C=C/c2ccc(OC(F)(F)F)cc2)oc(=O)c1 [Compound 3] | 1.9 ± 0.1 | > 40 | Selectivity index (HepG2 EC50 / H. contortus IC50) ([2]; against H. contortus): > 20 fold
2 | C[C@](C#N)(COc1cc(C#N)ccc1C(F)(F)F)NC(=O)c1ccc(SC(F)(F)F)cc1 [Monepantel, monepantel, reference compound] | 0.07 ± 0.01 |  | 
3 | COC(=O)c1cccc(/C=C/c2cc(OC)cc(=O)o2)c1 [Compound 18] | > 100 | > 40 | 
4 | COc1ccc(/C=C/c2cc(OC)cc(=O)o2)cc1 [Compound 2, yangonin] | 15 ± 3 | > 40 | Toxicity on MCF10A cells [3]: limited toxicity; Phenotype induced in treated larvae (Haemonchus contortus [4]): lethal ‘evisceration’ (Evi) phenotype; IC50 (Haemonchus contortus [4]): 23.7 µM
5 | CO/N=C1\C[C@]2(C[C@@H]3C[C@@H](C/C=C(\C)C[C@@H](C)/C=C/C=C4\CO[C@@H]5[C@H](O)C(C)=C[C@@H](C(=O)O3)[C@]45O)O2)O[C@H](/C(C)=C/C(C)C)[C@H]1C [Moxidectin, moxidectin, reference compound] | 0.02 |  | 
6 | COc1cccc(/C=C/c2cc(OC)cc(=O)o2)c1 [Compound 15] | > 100 | > 40 | IC50 (Haemonchus contortus [1]; [7]): 61.9 ± 7.3 µM
7 | COC(=O)c1ccc(/C=C/c2cc(OC)cc(=O)o2)cc1 [Compound 12] | > 100 | > 40 | Anthelmintic activity in the larval development assay (in words) (Haemonchus contortus [1]): inactive at the highest concentration tested
8 | CC(C)C[C@H](NC(=O)[C@H](Cc1ccccc1)NC(=O)c1cnccn1)B(O)O [Bortezomib, reference compound] |  | 0.01 | 
9 | COc1cc(/C=C/c2ccc(N3CCNCC3)cc2)oc(=O)c1 [Compound 11] | > 100 | > 40 | Anthelmintic activity in the larval development assay (in words) (Haemonchus contortus [1]): inactive
10 | COc1cc(/C=C/c2ccc(C(F)(F)F)cc2)oc(=O)c1 [Compound 8] | 10.3 ± 1.2 | > 40 | 
11 | COc1cc(/C=C/c2ccc(C)cc2)oc(=O)c1 [Compound 7] | 12.6 ± 2.1 | > 40 | 
12 | COC1=CC(=O)O[C@@H](CCc2ccccc2)C1 [dihydrokavain, reference compound] |  |  | Toxicity on MCF10A cells [3]: limited toxicity; Phenotype induced in treated larvae (Haemonchus contortus [4]): lethal ‘evisceration’ (Evi) phenotype; IC50 (Haemonchus contortus [4]): 208 µM
13 | COc1cc(/C=C/c2ccc(OC)nc2)oc(=O)c1 [Compound 19] | > 100 | > 40 | Anthelmintic activity in the larval development assay (in words) (Haemonchus contortus [1]): inactive at the highest concentration tested
14 | COc1cc(/C=C/c2ccc(C#N)cc2)oc(=O)c1 [Compound 13] | > 100 | > 40 | Anthelmintic activity in the larval development assay (in words) (Haemonchus contortus [1]): inactive at the highest concentration tested
15 | COc1cc(/C=C/c2ccc(Oc3ccccc3)cc2)oc(=O)c1 [Compound 5] | 5.2 ± 2.2 | > 40 | 
16 | COc1cc(/C=C/c2ccc(N(C)C)cc2)oc(=O)c1 [Compound 9] | > 50 | > 40 | Anthelmintic activity in the larval development assay (in words) (Haemonchus contortus [1]): inactive at the highest concentration tested
17 | COc1cc(/C=C/c2ccccc2)oc(=O)c1 [Compound 1, desmethoxyyangonin] | 37.1 ± 3.1 | > 40 | Toxicity on MCF10A cells [3]: limited toxicity; Exposure time sufficient to induce the Evi phenotype (Haemonchus contortus [4]; H. contortus): 30 h; Phenotype induced in treated larvae (Haemonchus contortus [4]): lethal ‘evisceration’ (Evi) phenotype; IC50 (Haemonchus contortus [4]): 31.7 µM
18 | COc1cc(/C=C/c2ccccc2OC)oc(=O)c1 [Compound 14] | 61.9 | > 40 | IC50 (Haemonchus contortus [1]; [7]): > 100 µM
19 | COc1cc(/C=C/c2ccc(OC(F)F)cc2)oc(=O)c1 [Compound 4] | 8.9 ± 0.3 | > 40 | 
20 | COc1cc(/C=C/c2ccc(N3CCOCC3)cc2)oc(=O)c1 [Compound 10] | 6.4 ± 0.2 | > 40 | 
21 | COc1cc(/C=C/c2ccc(Cl)cc2)oc(=O)c1 [Compound 6] | 12.4 ± 3.5 | > 40 | 
22 | COc1cc(/C=C/c2cccc(C#N)c2)oc(=O)c1 [Compound 17] | > 100 | > 40 | 
23 | COc1cc(/C=C/c2ccc3c(c2)OCO3)oc(=O)c1 [Compound 16] |  |  | IC50 (Haemonchus contortus [1]; Haemonchus contortus, 168 h): > 100 µM; EC50 ([2]; HepG2, 48 h): > 40 µM
